PMC10511702, “Design, molecular modelling and synthesis of novel benzothiazole derivatives as BCL-2 inhibitors” (Scientific Reports, 2023)

How the values were obtained:
[1] = test system: K-562; assay: NCI in vitro anti-proliferative single dose screen; format: cell-based, human; conditions: K-562, single dose of 10 µM
Experimental: (§1) The national cancer institute (NCI) in vitro anticancer screening is a two-stage process, beginning with the evaluation of the selected compounds 13c and 13d against NCI leukemia cell line at a single dose of 10 µM. The human leukemia cell line was obtained and maintained at the NCI. The output from the single dose screen is reported as a mean graph. The detailed assay protocol is discussed in the supporting material.
(§2) This assay was performed for compounds 13c and 13d by the Developmental Therapeutics Program (DTP) of the National Cancer Institute (NCI), division of cancer treatment and diagnosis, NIH, Bethesda, Maryland, USA (www.dtp.nci.nih.gov). The operation of this screen utilizes leukemia human tumor cell line[37]. The human tumor cell lines of the cancer screening panel were grown in RPMI 1640 medium containing 5% fetal bovine serum and 2 mM L-glutamine.
(§3) Results for the two compounds were reported as a mean graph of the percent growth of the treated cells when compared to the untreated control cells. The results are expressed as cell growth percent for the tested compounds on each of the used NCI cell line panels.
(§4) The human tumor cell lines of the cancer screening panel were grown in RPMI 1640 medium containing 5% fetal bovine serum and 2 mM L-glutamine. For a typical screening experiment, cells are inoculated into 96 well microtiter plates in 100 µL at plating densities ranging from 5,000 to 40,000 cells/well depending on the doubling time of individual cell lines. After cell inoculation, the microtiter plates are incubated at 37° C, 5 % CO2, 95 % air and 100 % relative humidity for 24 hrs prior to addition of experimental drugs. After 24 hrs, two plates of each cell line are fixed in situ with trichloroacetic acid (TCA), to represent a measurement of the cell population for each cell line at the time of drug addition (Tz). Experimental drugs are solubilized in dimethyl sulfoxide at 400-fold the desired final maximum test concentration and stored frozen prior to use. At the time of drug addition, an aliquot of frozen concentrate is thawed and diluted to twice the desired final maximum test concentration with complete medium containing 50 µg/mL gentamicin. Additional four, 10-fold or ½ log serial dilutions are made to provide a total of five drug concentrations plus control. Aliquots of 100 µl of these different drug dilutions are added to the appropriate microtiter wells already containing 100 µl of medium, resulting in the required final drug concentrations.
(§5) Following drug addition, the plates are incubated for an additional 48 hrs at 37°C, 5 % CO2, 95 % air, and 100 % relative humidity. For adherent cells, the assay is terminated by the addition of cold TCA. Cells are fixed in situ by the gentle addition of 50 µl of cold 50 % (w/v) TCA (final concentration, 10 % TCA) and incubated for 60 minutes at 4°C. The supernatant is discarded, and the plates are washed five times with tap water and air dried. Sulforhodamine B (SRB) solution (100 µl) at 0.4 % (w/v) in 1 % acetic acid is added to each well, and plates are incubated for 10 minutes at room temperature. After staining, unbound dye is removed by washing five times with 1 % acetic acid and the plates are air dried. Bound stain is subsequently solubilized with 10 mMtrizma base, and the absorbance is read on an automated plate reader at a wavelength of 515 nm. For suspension cells, the methodology is the same except that the assay is terminated by fixing settled cells at the bottom of the wells by gently adding 50 µl of 80 % TCA (final concentration, 16 % TCA).
(§6) Using the seven absorbance measurements [time zero, (Tz), control growth, (C), and test growth in the presence of drug at the five concentration levels (Ti)], the percentage growth is calculated at each of the drug concentrations levels. Percentage growth inhibition is calculated as: […]

[2] = test system: SR; assay: NCI in vitro anti-proliferative single dose screen; format: cell-based, human; conditions: single dose of 10 µM; for Cell growth percent: SR
Experimental: as §1, §2, §3, §4, §5, §6

[3] = test system: RPMI-8226; assay: NCI in vitro anti-proliferative single dose screen; format: cell-based, human; conditions: RPMI-8226, single dose of 10 µM
Experimental: as §1, §2, §3, §4, §5, §6

[4] = test system: CCRF-CEM; assay: NCI in vitro anti-proliferative single dose screen; format: cell-based, human; conditions: single dose of 10 µM
Experimental: as §1, §2, §3, §4, §5, §6

[5] = test system: MOLT-4; assay: NCI in vitro anti-proliferative single dose screen; format: cell-based, human; conditions: MOLT-4, single dose of 10 µM
Experimental: as §1, §2, §3, §4, §5, §6

[6] = test system: HL-60(TB); assay: NCI in vitro anti-proliferative single dose screen; format: cell-based, human; conditions: single dose of 10 µM
Experimental: as §1, §2, §3, §4, §5, §6

[7] = test system: NCI leukemia cell line; assay: NCI in vitro anti-proliferative screen, leukemia panel as a whole; format: cell-based, human; conditions: single dose of 10 µM
Experimental: as §1
as §2, with “The human tumor cell lines of the cancer screening panel were grown in RPMI 1640 medium containing 5% fetal bovine serum and 2 mM L-glutamine.” left out
Results for the two compounds were reported as a mean graph of the percent growth of the treated cells when compared to the untreated control cells. The results are expressed as cell growth percent for the tested compounds on each of the used NCI cell line panels. […]
Following drug addition, the plates are incubated for an additional 48 hrs at 37°C, 5 % CO2, 95 % air, and 100 % relative humidity. […] Bound stain is subsequently solubilized with 10 mMtrizma base, and the absorbance is read on an automated plate reader at a wavelength of 515 nm. […]

[8] = target: T1, recombinant BCL-2 (Homo sapiens, UniProt P10415); assay: In vitro BCL-2 inhibitory activity, TR-FRET assay (BPS Bioscience); format: binding; conditions: for IC50: 5 concentrations 1 nM-10 µM; for inhibition at 10 µM: single dose of 10 µM
T1 construct: purchased BPS Bioscience 50272
T1 sequence (P10415 whole entry): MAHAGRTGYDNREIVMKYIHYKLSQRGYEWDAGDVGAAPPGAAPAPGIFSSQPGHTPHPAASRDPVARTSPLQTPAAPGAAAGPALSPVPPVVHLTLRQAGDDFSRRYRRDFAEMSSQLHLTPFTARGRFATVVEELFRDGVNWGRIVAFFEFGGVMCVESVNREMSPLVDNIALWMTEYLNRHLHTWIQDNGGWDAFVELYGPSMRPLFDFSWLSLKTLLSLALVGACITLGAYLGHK
Experimental: The in vitro enzyme inhibition determination for the synthesized compounds was carried out in BPS Bioscience Corporation, San Diego, CA, USA (www.bpsbioscience.com). […] The assay was performed by TR-FRET technology using a recombinant BCL-2 and a peptide- ligand substrate. The TR-FRET signal from the assay is correlated with the amount of Ligand binding to BCL-2. […] All of the binding reactions were conducted at room temperature. […] The reaction mixture incubated for 180 min prior to reading the TR-FRET signal. For the background, ligand was replaced with assay buffer. Fluorescence signals for both the donor and acceptor dyes were measured using a Tecan Infinite M1000 plate reader. TR-FRET was recorded as the ratio of the fluorescence of the acceptor and the donor dyes (acceptor/donor). Binding experiments were performed in duplicate at each concentration. The TR-FRET data were analyzed using the computer software, Graphpad Prism. In the absence of the compound in wells containing BCL-2 ligand, the TR-FRET signal (Ft) in each data set was defined as 100% activity. In wells without peptide ligand, the TR-FRET signal (Fb) in each data set was defined as 0% activity. The percent activity in the presence of each compound was calculated according to the following equation: % activity = [(F − Fb)/ (Ft − Fb)] × 100, where F = the TR-FRET signal in the presence of the compound. The percent inhibition was calculated according to the following equation: % inhibition = 100—% activity. IC50 determination for target compounds against BCL-2 was calculated. […] The IC50 value was determined by the concentration causing a half-maximal percent activity.

[9] = test system: BCL-2; conditions: cited from earlier work

| SMILES | melting point | inhibition at 10 µM [8] | also measured |
| --- | --- | --- | --- |
| Cc1ccc(COc2ccc(NC(=O)c3ccc4nc(NC(=O)c5ccc(NCCc6ccccc6)c([N+](=O)[O-])c5)sc4c3)cc2)cc1 [13c, N-(4-((4-Methylbenzyl)oxy)phenyl)-2-(3-nitro-4-(phenethylamino)benzamido)benzo-[d]thiazole-6-carboxamide] | 138 to 140 °C | 84% | Cell growth percent [1]: 87.23%; Cell growth percent [2]: 82.5%; Cell growth percent [3]: 87.5%; Cell growth percent [4]: 93.91%; Cell growth percent [5]: 94.74%; Cell growth percent [6]: 75.74%; inhibition against the used leukemia cell line (in words) [7]: poor inhibition; IC50 [8]: 471 nM |
| O=C(Nc1ccc(OCc2ccc(C(F)(F)F)cc2)cc1)c1ccc2nc(NC(=O)c3ccc(NCCc4ccccc4)c([N+](=O)[O-])c3)sc2c1 [13d, N-(4-((4-Trifluoromethylbenzyl)oxy)phenyl)-2-(3-nitro-4-(phenethylamino)benzamido)-benzo[d]thiazole-6-carboxamide] | 218 to 220 °C | – | Cell growth percent [1]: 67.92%; inhibition at 10 µM ([2]; Homo sapiens, leukemic SR cell lines, read-out: growth inhibition): 62.9%; Cell growth percent [2]: 37.13%; Cell growth percent [3]: 69.86%; Cell growth percent [4]: 68.2%; Cell growth percent [5]: 74.37%; Cell growth percent [6]: 96.87%; IC50 [8]: 363 nM |
| O=C(Nc1cccc(Cl)c1)Nc1ccc2nc(NS(=O)(=O)c3ccc4ccccc4c3)sc2c1 [17b, N-(6-(3-(3-Chlorophenyl)ureido)benzo[d]thiazol-2-yl)naphthalene-2-sulfonamide] | ≥ 300 °C | 7% | – |
| O=C(Nc1cccc(Br)c1)Nc1ccc2nc(NS(=O)(=O)c3ccc4ccccc4c3)sc2c1 [17c, N-(6-(3-(3-Bromophenyl)ureido)benzo[d]thiazol-2-yl)naphthalene-2-sulfonamide] | ≥ 300 °C | 10% | – |
| COc1cccc(NC(=O)Nc2ccc3nc(NS(=O)(=O)c4ccc5ccccc5c4)sc3c2)c1 [17d, N-(6-(3-(3-Methoxyphenyl)ureido)benzo[d]thiazol-2-yl)naphthalene-2-sulfonamide] | ≥ 300 °C | 7% | – |
| Cc1cccc(NC(=O)Nc2ccc3nc(NS(=O)(=O)c4ccc5ccccc5c4)sc3c2)c1 [17e, N-(6-(3-(m-Tolyl)ureido)benzo[d]thiazol-2-yl)naphthalene-2-sulfonamide] | ≥ 300 °C | 0% | – |
| O=C(Nc1ccc(Br)cc1)Nc1ccc2nc(NS(=O)(=O)c3ccc4ccccc4c3)sc2c1 [17f, N-(6-(3-(4-Bromophenyl)ureido)benzo[d]thiazol-2-yl)naphthalene-2-sulfonamide] | ≥ 300 °C | > 60% | IC50 [8]: 2290 nM |
| O=C(Nc1ccc(Cl)c(C(F)(F)F)c1)Nc1ccc2nc(NS(=O)(=O)c3ccc4ccccc4c3)sc2c1 [17g, N-(6-(3-(4-Chloro-3-(trifluoromethyl)phenyl)ureido)benzo[d]thiazol-2-yl)naphthalene-2-sulfonamide] | ≥ 300 °C | 18% | – |
| O=C(Nc1ccc(Cl)c(Cl)c1)Nc1ccc2nc(NS(=O)(=O)c3ccc4ccccc4c3)sc2c1 [17h, N-(6-(3-(3,4-Dichlorophenyl)ureido)benzo[d]thiazol-2-yl)naphthalene-2-sulfonamide] | 290 to 292 °C | 0% | – |
| Cc1cc(Cl)ccc1NC(=O)Nc1ccc2nc(NS(=O)(=O)c3ccc4ccccc4c3)sc2c1 [17i, N-(6-(3-(4-Chloro-2-methylphenyl)ureido)benzo[d]thiazol-2-yl)naphthalene-2-sulfonamide] | 280 to 282 °C | 14% | – |
| Cc1ccc(NC(=O)Nc2ccc3nc(NS(=O)(=O)c4ccc5ccccc5c4)sc3c2)cc1Cl [17j, N-(6-(3-(3-Chloro-4-methylphenyl)ureido)benzo[d]thiazol-2-yl)naphthalene-2-sulfonamide] | ≥ 300 °C | 9% | – |
| CCCCc1c(-c2ccc(C(=O)NS(=O)(=O)c3ccc4ccccc4c3)cc2C(=O)N2CCc3ccccc3C2)c(CO)nn1-c1ccc(Oc2cccc(Cl)c2)cc1 [Compound 1] | 42 to 44 °C | – | IC50 [9]: 6 nM |
